In ChEMBL document CHEMBL3046094, “Predicting anti-HIV activity of 1,1,3-trioxo[1,2,4]-thiadiazine (TTD) derivatives: 3D QSAR approach” (Med Chem Res, 2009):

Tested on: Human immunodeficiency virus 1
Experiment: Antiviral activity against Human immunodeficiency virus 1 infected human MT4 cells assessed as inhibition of virus-induced cytopathic effect by MTT assay
Type: functional, organism-based
Details: Human immunodeficiency virus 1, MT4

Row | SMILES | EC50 [µM]
1 | O=C1N(c2ccc(Cl)cc2)c2cscc2S(=O)(=O)N1Cc1ccccc1 | 7.4
2 | O=C1N(Cc2ccccc2)c2cscc2S(=O)(=O)N1Cc1ccccn1 | 0.2
3 | N#CCN1C(=O)N(Cc2cccc(F)c2)S(=O)(=O)c2cscc21 | 0.3
4 | CCN1C(=O)N(Cc2cccc(Cl)c2)S(=O)(=O)c2cscc21 | 0.09
5 | N#CCN1C(=O)N(Cc2cccnc2)S(=O)(=O)c2cscc21 | 0.8
6 | CCN1C(=O)N(Cc2ccccn2)S(=O)(=O)c2cscc21 | 1.1
7 | N#CCN1C(=O)N(CCc2ccccc2)S(=O)(=O)c2cscc21 | 10.9
8 | O=C1N(c2ccccc2Cl)c2cscc2S(=O)(=O)N1Cc1ccccc1 | 0.1
9 | CCN1C(=O)N(Cc2ccccc2Cl)S(=O)(=O)c2cscc21 | 7.6
10 | N#CCN1C(=O)N(Cc2cccc(Cl)c2)S(=O)(=O)c2cscc21 | 0.1
11 | O=C1N(Cc2ccccc2)c2cscc2S(=O)(=O)N1CCc1ccccc1 | 41.4
12 | N#CCCN1C(=O)N(Cc2ccccc2)S(=O)(=O)c2cscc21 | 4.9
13 | CCOC(=O)CN1C(=O)N(Cc2ccccc2)S(=O)(=O)c2cscc21 | 7.3
14 | C#CCN1C(=O)N(Cc2ccccc2)S(=O)(=O)c2cscc21 | 0.96
15 | N#CCN1C(=O)N(Cc2ccccc2)S(=O)(=O)c2cscc21 | 0.87
16 | CCCN1C(=O)N(Cc2ccccc2)S(=O)(=O)c2cscc21 | 6.1
17 | O=C1N(Cc2ccccc2)c2cscc2S(=O)(=O)N1Cc1ccccc1 | 2.2
18 | C=CCN1C(=O)N(Cc2ccccc2)S(=O)(=O)c2cscc21 | 6.3
19 | N#CCN1C(=O)N(Cc2cc(F)cc(F)c2)S(=O)(=O)c2cscc21 | 8.6
20 | CCN1C(=O)N(c2cccc(Cl)c2)S(=O)(=O)c2cscc21 | 61.3
21 | C#CCN1C(=O)N(Cc2cccc(Cl)c2)S(=O)(=O)c2cscc21 | 0.09
22 | CN1C(=O)N(Cc2cccc(Cl)c2)S(=O)(=O)c2cscc21 | 2.1
23 | N#CCN1C(=O)N(Cc2cccc(Br)c2)S(=O)(=O)c2cscc21 | 0.05
24 | CCN1C(=O)N(Cc2ccccc2)S(=O)(=O)c2cscc21 | 2.4
25 | CN1C(=O)N(Cc2ccccc2)S(=O)(=O)c2cscc21 | 2.7
26 | O=C1N(c2cccc(Cl)c2)c2cscc2S(=O)(=O)N1Cc1ccccc1 | 1.4
27 | N#CCN1C(=O)N(Cc2ccccn2)S(=O)(=O)c2cscc21 | 0.4
28 | CCN1C(=O)N(CCc2ccccc2)S(=O)(=O)c2cscc21 | 3.6
